This note sets out measurements from patent publication US20180008688A1, “METHOD AND COMPOSITIONS FOR ENHANCING IMMUNOTHERAPEUTIC TREATMENT OF A CANCER” (Augusta University Research Institute, Inc., priority 2016, published 2018).

Where two headings read alike, the source gives them in different places.

The test system of test [1] is B16F10 tumors. The class given is in vivo. Particulars: for anti-tumor effect: nutlin-3a added to CTX/VO-OHpic, FIG. 8B. Here is the method: In vivo tumor studies: The B16F10 and E.G7 (EL4-OVA) cell lines were obtained from ATCC. B16-OVA (B16F10 transfected with full-length chicken ovalbumin) clone MO4 was according to Falo et al. ((1995) Nat. Med. 1: 649-653). B16F10 cells expressing EGFP protein (B16-GFP cells) were derived using lentiviral transfection. Tumor implantation was performed as described (Sharma et al., (2007) J. Clin. Invest. 117: 2570-2582), using 1×10^5 cells for B16F10 and 1×10^6 cells for other cell lines (large inocula were used to ensure rapid tumor engraftment and immune suppression). […] Tumor volume was calculated from orthogonal diameters using the formula V=L×W^2×π/6. Mice received approved euthanasia when tumors reached a size of 300 mm^2 (product of orthogonal diameters); death was never used a planned endpoint in any study.
(§1) Tumor implantation was performed as described (Sharma et al., (2007) J. Clin. Invest. 117: 2570-2582). VO-OHpic was given at 10 mg/kg/day i.p., in 10% DMSO/PBS. Cyclophosphamide was given at 150 mg/kg i.p×1 dose; and oxaliplatin at 5 mg/kg i.p×1 dose. Nutlin-3a was administered daily at 10 mg/kg/day i.p. For checkpoint blockade, mice received anti-CTLA-4 plus a cocktail of antibodies against the PD-1 pathway. Vaccines and T cell adoptive transfer studies were performed as described (Sharma et al., (2015) Sci. Advances. 1: e1500845).
VO-OHpic/CTX, nutlin-3a, oxaliplatin and immunotherapy regimens: The vanadate compound VO-OHpic (Mak et al., (2010) J. Chem. Biol. 3: 157-163) inhibits PTEN activity, and this drug was used to destabilize PTEN+Tregs during chemotherapy. Like all of the available PTEN-inhibitors, VO-OHpic can also affect other phosphatases (Spinelli et al., (2015) Adv. Biol. Regul. 57: 102-111).
VO-OHpic was given at 10 mg/kg/day i.p., in 10% DMSO/PBS. Cyclophosphamide was given at 150 mg/kg i.p×1 dose. Oxaliplatin was given at 5 mg/kg i.p×1 dose. […] For checkpoint blockade, mice received anti-CTLA-4 (clone 9D9, BioXcell) plus a cocktail of antibodies against the PD-1 pathway: anti-PD-L2, clone TY25 (Yamazaki et al., (2002) J. Immunol. 169: 5538-5545); anti-PD-1, clone J43 (Agata et al., (1996) Int. Immunol. 8: 765-772); and anti-PD-L1, clone MIH7 (Tsushima et al., (2003) Eur. J. Immunol. 33: 2773-2782). A cocktail was used in order to block the PD-1 pathway as completely as possible and thus minimize any peculiarities of a single blocking antibody.

For test [2], the system named is B16-OVA tumors. In words: RIP-mOVA mice with OT-I cells and B16-OVA tumors, immunotherapy with or without nutlin-3a. Type of test: in vivo. Here is the method:
It was then determined which of these opposing effects would prevail when the same antigen was both a tumor-antigen and self-antigen. RIP-mOVA mice expressing OVA as a self-antigen were implanted with B16-OVA tumors expressing OVA as a tumor antigen (Falo. Jr. et al., (1995) Nat. Med. 1: 649-653). Prior to tumor implantation, all mice received adoptive transfer of congenically-marked OT-I cells. After tumors were established, mice were treated with immunotherapy (PTEN-inhibitor plus chemotherapy), with or without nutlin-3a.
RIP-mOVA mice bearing B16-OVA tumors were treated with a cocktail of blocking antibodies against CTLA-4 plus PD-1, PD-L1 and PD-L2, with or without concurrent nutlin-3a.
as §1
The immune-activating effect of p53 is context-specific for the tumor milieu: The immunogenic effect of nutlin-3a seemed paradoxical because in most settings p53 is thought to be immunosuppressive (Munoz-Fontela et al., (2016) Nat. Rev. lmmunol. 16: 741-750; Thomasova et al., (2012) Neoplasia 14: 1097-1101). It was considered that p53 actually plays two roles in the immune system: a self-tolerance role in normal tissues during physiologic cell death (Yoon et al., (2015) Science 349: 1261669); but a pro-inflammatory role in certain specialized contexts such as immune-surveillance of tumors (Munoz-Fontela et al., (2016) Nat. Rev. lmmunol. 16: 741-750). To test this, a model in which OVA-expressing tumors were implanted in RIP-mOVA mice (which constitutively express OVA in pancreatic islet cells) was used. OVA thus became both a normal tissue antigen and a tumor antigen.

Test [3] has as its system E.G7 tumors. Put plainly: RIP-mOVA mice with E.G7 tumors treated with oxaliplatin with or without nutlin. The class given is in vivo. The note with it: nutlin-3a added to oxaliplatin. Here is the method: A classical model of ICD was first tested in which EL4-OVA lymphoma tumors (clone E.G7) are treated with oxaliplatin chemotherapy (Ghiringhelli et al., (2009) Nat. Med. 15: 1170-1178). E.G7 bears the same model antigen as B16-OVA (described with the RIP-mOVA model, above), so it was possible to test the effects of nutlin plus oxaliplatin in the RIP-mOVA model.

The test system of test [4] is OT-I T cells. Put plainly: Autoimmune diabetes in RIP-mOVA mice after OT-I T cell transfer (no tumor). Type of test: in vivo, mouse. As to the method: Accordingly and without wishing to be bound by any one hypothesis, it is likely that p53 can play two different immunologic roles, depending on the context (tumor versus normal tissues). […] Following T cell transfer, these mice progressively developed lethal autoimmune diabetes. However, if mice were treated with nutlin-3a diabetes formation was suppressed and the mice remained healthy.

Test [5] concerns OT-I T cells. In words: OT-I T cells activated with cognate antigen and different antigen-presenting cells, with nutlin. Type of test: cell-based, mouse. An excerpt: Under normal circumstances the signal to downregulate p53 is provided by engagement of the T cell antigen receptor (TCR) that activates MDM2 and targets p53 for degradation (Watanabe et al., (2014) Immunity 40: 681-691).
To test whether the effect of Ly6c^+CD103^+ dendritic cells was due to IL-12, OT-I T cells were activated using 3 different types of antigen-presenting cells (APCs).
Consistent with this, when dendritic cells were sorted from TDLNs of IL-12-deficient mice (IL-12p40-KO), treated with the same immunotherapy regimen, these dendritic cells were unable to rescue T cells from nutlin. T cell proliferation tracked concordantly with p53 levels. In these experiments with dendritic cells from TDLNs, feeder populations were added to maintain functional activity.

[6] abbreviates: nutlin-3a added to VO-OHpic+CTX.
Where [7] appears, read: nutlin added to checkpoint blockade.
Where [8] appears, read: nutlin-3a 10 mg/kg/day added to CTX/VO-OHpic, FIG. 13.
Where [9] appears, read: nutlin-3a 10 mg/kg/day added to CTX/VO-OHpic, FIG. 13, 10 mg/kg/day.
The mark [10] stands for this setting: activation with cognate antigen.

With `COc1ccc(C2=NC(c3ccc(Cl)cc3)C(c3ccc(Cl)cc3)N2C(=O)N2CCNC(=O)C2)c(OC(C)C)c1` (single isomer, unassigned; (-)) [nutlin-3a, (−)-4-(4,5-Bis(4-chlorophenyl)-2-(2-isopropoxy-4-methoxyphenyl)-4,5-dihydro-1H-imidazole-1-carbonyl)piperazin-2-one], the anti-tumor effect entry was “maintained a prolonged anti-tumor response” in test [1]; “markedly prolonged and maintained the anti-tumor effect” in test [1] (listed as Nutlin-3a); “significantly enhancing and prolonging the anti-tumor effect” in test [2] (setting [7]); “markedly enhanced the anti-tumor response” in test [2] (setting [8]); “enhanced and prolonged” in test [2] (setting [9]). For the same molecule, the “Ly6c+CD103+ dendritic cells in tumors” value in test [1] (setting [6]) is “large population”. In addition, in test [1] (setting [6]), the “phospho-p53-Ser15 in dendritic cells” value is on record as “sustained elevation”. In test [2] (setting [7]), the “Ly6c+CD103+ dendritic cells in the tumors” value was “maintained expression”. Moreover, the autoimmune diabetes result in test [2] (nutlin added to checkpoint blockade (CTLA-4 plus PD-1, PD-L1, PD-L2 antibodies)) is listed as “protected recipient subjects from autoimmune diabetes”; in test [2] (setting [8]), “fully protected from diabetes”; in test [2] (setting [9]) it was “protected the mice from lethal autoimmunity”; in test [3], “protected the mice from diabetes”. For the same molecule, the “p53 in OT-I T cells in pancreatic LNs” value in test [2] (nutlin added to immunotherapy) is “increase p53”. For the same molecule, in test [2] (nutlin added to immunotherapy, same animals), the “p53 in OT-I T cells in TDLNs” value is given as “complete loss of detectable p53 expression”. The anti-tumor activity entry in test [3] was “significantly enhancing the anti-tumor activity”. In addition, in test [4] (mouse, in vivo), the “level of p53 in OT-I cells in pancreatic LNs” value is on record as “increased”. The diabetes formation result in test [4] (nutlin-3a treatment after OT-I transfer) was “suppressed”. For the same molecule, in test [4] (pancreatic LNs), the “expression of granzyme B in OT-I cells” value is on record as “decreasing”. Further, the “down-regulation of p53 in OT-I T cells” value in test [5] (CD11c+Ly6c+ dendritic cells from TDLNs of VO-OHpic+CTX treated mice as APCs) is listed as “lost all ability to prevent down-regulation of p53”; in test [5] (dendritic cells from normal LNs as APCs), “completely prevented”. Moreover, the T cell proliferation entry in test [5] (setting [10]) is listed as “prevented T cell proliferation”. Further, in test [5] (setting [10]), the “total p53 in OT-I T cells” value was “marked increase”.
